Results: US20140170199A1, “PARASITICIDAL COMBINATION COMPRISING INDOXACARB AND DELTAMETHRIN” (priority 2011, published 2014)

Legend:
[1] = test system: voltage-dependent sodium channels expressed in DUM neurons; assay: Whole-cell patch-clamp of voltage-dependent inward sodium current in isolated DUM neuron cell bodies; type: cell-based, cockroaches (Periplaneta Americana)
Procedure: Experiments were performed on dorsal unpaired median (DUM) neuron cell bodies (Grolleau and Lapied (2000), J. Exp. Biol., 203, 1633-1648) isolated from the dorsal midline of the terminal abdominal ganglion of adult male cockroaches (Periplaneta Americana) taken from a stock colony, maintained at 29° C. with a photoperiod of 12 hours light:12 hours dark.
Adult male cockroaches were immobilised dorsal-side up on a dissection dish. The dorsal cuticle, gut and some dorso-longitudinal muscles were removed, to allow access to the ventral nerve cord. The abdominal nerve cord and its terminal abdominal ganglion (TAG), carefully dissected under a binocular microscope, were placed in normal saline. Isolation of adult DUM neuron cell bodies was performed under sterile conditions using enzymatic digestion and mechanical dissociation of the median part of the TAG (Lapied et al. (1989), J. Exp. Biol., 144, 535-549).
Ganglia were excised and incubated for 35 min at 29° C. in cockroach saline supplemented with 1.5 mg/ml collagenase (type I, Worthington, Lakewood, N.J.). After thoroughly washing off the enzyme, ganglia were mechanically dissociated by gentle repeated suctions through fire-polished Pasteur pipettes. Then, the isolated DUM neuron cell bodies were maintained at 29° C. for 24 hours before experiments are carried out.
Isolated neuronal cell bodies were used for electrophysiological studies. […] A total number of six different isolated cell bodies (six replicates) were used for each experiment.
Deltamethrin and DCJW (IN-JT333), stock solutions (100 mM and 10 mM, respectively) were prepared in dimethylsulphoxide (DMSO, Sigma Chemical, France). Final dilutions contained a maximum of 0.1% DMSO.
Deltamethrin and DCJW, prepared in cockroach saline, were applied separately by a gravity perfusion system onto isolated cell body maintained in short-term culture.
Experiments were carried out at room temperature (20° C.).
The patch-clamp technique in the whole-cell recording configuration (voltage-clamp condition) was used to record voltage-dependent inward sodium current. […]
For each time point, relative sodium current amplitudes are expressed as means±standard errors of the mean (SEM) (table 2). […]
In addition to the concomitant application of deltamethrin and DCJW, the effect of the mixture DCJW (10^−7M) and deltamethrin (10^−5 M) on DUM neuron was assessed after a pre-treatment of the cell body by deltamethrin (10^−5 M) for 5 minutes. […]
As in Example 2, for each time point, relative sodium current amplitudes were expressed as means±standard errors of the mean (SEM). […]

[2] = test system: Rhipicephalus sanguineus ticks; assay: Tick control on dogs (experimental infestation, tick counts and efficacy); type: in vivo; design: Tick efficacies, arithmetic mean / Tick efficacies, geometric mean: concentration or dose not given beside the values
Procedure: The SCALIBOR® collar was administered to dogs according to the instructions in the Product leaflet. The topical formulation of indoxacarb was administered to dogs in Groups 3 and 4 according to the dose table below:
A 4% deltamethrin-impregnated collar (SCALIBOR®, Merck Animal Health) is used to protect dogs from the bites of sand flies (Phlebotomus sp.), mosquitoes (Culex sp.), and ticks for up to six months with high persistent efficacy. Immediate efficacy of the collar against fleas is known to be inadequate.
The study was conducted on four groups of eight dogs each. • Group 1: Negative control. • Group 2: Dogs were fitted with the Scalibor® collar on Day 0. • Group 3: Dogs were treated with a topical formulation of indoxacarb on Days 0, 30, 60, 90, 120, 150, and 180 (once a month for 6 months). • Group 4: Dogs were fitted with the Scalibor® collar (4% deltamethrin) on Day 0 and treated with a topical formulation of indoxacarb on Days 0, 30, 60, 90, 120, 150, and 180 (once a month for 6 months). Dogs were experimentally infested with 100 fleas and 50 ticks two days before treatment (Day 0) and then on various days throughout the study.
Efficacy against ticks and fleas was calculated for each treatment group at each assessment day according to the formulas given below. Due to the fact that small and even zero tick and flea counts were recorded, it was expected that the tick and flea counts would not follow a normal distribution. It was therefore decided that the primary efficacy calculations would be based on geometric means rather than arithmetic means. The calculations were based on the geometric means of the tick or flea (count+1) data. One (1) was subsequently subtracted from the result to obtain a meaningful value for the geometric mean of each treatment group. Efficacy calculations based on arithmetic means were, however, also reported on.
Percent efficacy against ticks was calculated as follows:
Efficacy(%)=100×(Gmc−Gmt)/Gmc, where:
Gmc=Geometric or arithmetic mean number of live ticks (categories 1-3) on dogs in the control group (Group 1) at a specific time point. Gmt=Geometric or arithmetic mean number of live ticks (categories 1-3; immediate Day+2 efficacy) and dead attached engorged ticks (category 6; residual >Day+2 efficacies) on dogs in the treatment groups (Groups 2, 3 & 4) at a specific time point.

[3] = DCJW 10^-7 M alone, after 20 minutes
[4] = Day +2 (immediate), vs negative control
[5] = Day +2, count ~48 h after treatment or infestation
[6] = Day +16, count ~48 h after infestation
[7] = Day +30, count ~48 h after infestation
[8] = Day +44, count ~48 h after infestation
[9] = Day +72, count ~48 h after infestation
[10] = Day +100, count ~48 h after infestation
[11] = Day +128, count ~48 h after infestation
[12] = Day +156, count ~48 h after infestation
[13] = Day +170, count ~48 h after infestation
[14] = Day +184, count ~48 h after infestation

N#Cc1ccc(CC(=NNC(=O)Nc2ccc(OC(F)(F)F)cc2)c2cccc(C(F)(F)F)c2)cc1 (mixture of isomers) [metaflumizone E/Z, (EZ)-2012-(4-cyanophenyl)-1-(a,a,a-trifluoro-mtolypethylidene]-4 (trifluoromethoxy) carbanilohydrazide]
Effect on the sodium current amplitude ([1]; bath application at different concentrations (10^-10 to 10^-5 M), alone): produced a reduction of the sodium current amplitude | Dose dependence of the reduction of sodium current amplitude ([1]; different concentrations (10^-10 to 10^-5 M), alone): not dose-dependent

COC(=O)C12Cc3cc(Cl)ccc3C1=NN(C(=O)Nc1ccc(OC(F)(F)F)cc1)CO2 (stereo not shown) [DCJW, methyl 7-chloro-2,5-dihydro-2-[[[4-(trifluoromethoxy)phenyl]amino]carbonyl]indeno-[1,2-e][1,3,4]oxadiazine-4a(3H)-carboxylate]
Percentage of inhibition of the sodium current amplitude [1, 3]: 40.7% | Sodium current amplitude (relative to control current 100%) [1, 3]: 59.3%

CC1(C)[C@H](C(=O)O[C@H](C#N)c2cccc(Oc3ccccc3)c2)[C@@H]1C=C(Br)Br [deltamethrin, (S)-α-Cyano-3-phenoxybenzyl-(1R,3R)-3-(2,2-dibromovinyl)-2,2-dimethylcyclopropanecarboxylate]
Tick efficacies, geometric mean [2, 4]: 76.9%

COC(=O)N(C(=O)N1CO[C@@]2(C(=O)OC)Cc3cc(Cl)ccc3C2=N1)c1ccc(OC(F)(F)F)cc1 [indoxacarb, (5)-methyl 7-chloro-2,5-dihydro-2-[[(methoxycarbonyl) [4-(trifluoromethoxy)phenyl]amino]carbonyl]indeno[1,2-e][1,3,4]oxadiazine-4a(3H)-carboxylate]
Tick efficacies, arithmetic mean [2, 4]: 13.3% | Tick efficacies, geometric mean [2, 4]: 15.5% | Tick counts, arithmetic mean [2, 5]: 18.8 | Tick counts, geometric mean [2, 5]: 18.1^4 | Immediate or persistent effectiveness against R. sanguineus ticks ([2]; Day +2 to Day 184): No immediate or persistent effectiveness | Tick counts, arithmetic mean [2, 6]: 13.8 | Tick counts, geometric mean [2, 6]: 12.1^4 | Tick efficacies, arithmetic mean ([2]; Day +16, vs negative control): 34.3% | Tick efficacies, geometric mean ([2]; Day +16, vs negative control): 37.4% | Tick counts, arithmetic mean [2, 7]: 14.0 | Tick counts, geometric mean [2, 7]: 9.8^2,4 | Tick efficacies, arithmetic mean ([2]; Day +30, vs negative control): 42.0% | Tick efficacies, geometric mean ([2]; Day +30, vs negative control): 58.7% | Tick counts, arithmetic mean [2, 8]: 18.4 | Tick counts, geometric mean [2, 8]: 18.0^4 | Tick efficacies, arithmetic mean ([2]; Day +44, vs negative control): 25.0% | Tick efficacies, geometric mean ([2]; Day +44, vs negative control): 25.8% | Tick counts, arithmetic mean [2, 9]: 24.5 | Tick counts, geometric mean [2, 9]: 23.5^4 | Tick efficacies, arithmetic mean ([2]; Day +72, vs negative control): 20.0% | Tick efficacies, geometric mean ([2]; Day +72, vs negative control): 20.9% | Tick counts, arithmetic mean [2, 10]: 18.3 | Tick counts, geometric mean [2, 10]: 16.0^4 | Tick efficacies, arithmetic mean ([2]; Day +100, vs negative control): 35.4% | Tick efficacies, geometric mean ([2]; Day +100, vs negative control): 40.9% | Tick counts, arithmetic mean [2, 11]: 24.5 | Tick counts, geometric mean [2, 11]: 22.6^4 | Tick efficacies, arithmetic mean ([2]; Day +128, vs negative control): 12.1% | Tick efficacies, geometric mean ([2]; Day +128, vs negative control): 16.0% | Tick counts, arithmetic mean [2, 12]: 25.4 | Tick counts, geometric mean [2, 12]: 25.0^4 | Tick efficacies, arithmetic mean ([2]; Day +156, vs negative control): 12.1% | Tick efficacies, geometric mean ([2]; Day +156, vs negative control): 12.2% | Tick counts, arithmetic mean [2, 13]: 21.1 | Tick counts, geometric mean [2, 13]: 19.9^4 | Tick efficacies, arithmetic mean ([2]; Day +170, vs negative control): 18.4% | Tick efficacies, geometric mean ([2]; Day +170, vs negative control): 20.0% | Tick counts, arithmetic mean [2, 14]: 18.3 | Tick counts, geometric mean [2, 14]: 17.1^4 | Tick efficacies, arithmetic mean ([2]; Day +184, vs negative control): 25.1% | Tick efficacies, geometric mean ([2]; Day +184, vs negative control): 28.3%
